{"source": "paper PMC12143796", "about": "“Virtual screening of a random tripeptide library for easily prepared inhibitors of insect chitinolytic enzymes” (The Cell Surface, 2025)", "type_in_all_cases": "biochemical", "key": {"[1]": {"target": "T1, OfChtI (Ostrinia furnacalis, UniProt Q2V6H4)", "T1 construct": "PDB id is that of the docking structure", "T1 sequence (Q2V6H4 19-407)": "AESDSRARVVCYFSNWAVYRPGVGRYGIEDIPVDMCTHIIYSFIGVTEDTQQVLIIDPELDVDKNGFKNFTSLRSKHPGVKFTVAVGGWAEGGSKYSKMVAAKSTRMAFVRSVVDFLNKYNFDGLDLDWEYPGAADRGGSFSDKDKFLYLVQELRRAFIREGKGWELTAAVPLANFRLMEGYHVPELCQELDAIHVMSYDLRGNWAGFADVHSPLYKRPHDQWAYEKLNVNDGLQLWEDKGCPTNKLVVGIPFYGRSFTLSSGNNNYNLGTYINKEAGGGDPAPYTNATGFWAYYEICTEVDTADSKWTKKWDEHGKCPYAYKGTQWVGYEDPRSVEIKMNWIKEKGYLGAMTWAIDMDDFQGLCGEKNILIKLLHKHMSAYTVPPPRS", "assay": "fluorescence assay of released 4-methylumbelliferone", "conditions": "read-out: % inhibition at 1 mM"}, "[2]": {"target": "T2, OfHex1 (Ostrinia furnacalis, UniProt Q06GJ0)", "T2 construct": "PDB id is that of the docking structure", "T2 sequence (Q06GJ0 23-594)": "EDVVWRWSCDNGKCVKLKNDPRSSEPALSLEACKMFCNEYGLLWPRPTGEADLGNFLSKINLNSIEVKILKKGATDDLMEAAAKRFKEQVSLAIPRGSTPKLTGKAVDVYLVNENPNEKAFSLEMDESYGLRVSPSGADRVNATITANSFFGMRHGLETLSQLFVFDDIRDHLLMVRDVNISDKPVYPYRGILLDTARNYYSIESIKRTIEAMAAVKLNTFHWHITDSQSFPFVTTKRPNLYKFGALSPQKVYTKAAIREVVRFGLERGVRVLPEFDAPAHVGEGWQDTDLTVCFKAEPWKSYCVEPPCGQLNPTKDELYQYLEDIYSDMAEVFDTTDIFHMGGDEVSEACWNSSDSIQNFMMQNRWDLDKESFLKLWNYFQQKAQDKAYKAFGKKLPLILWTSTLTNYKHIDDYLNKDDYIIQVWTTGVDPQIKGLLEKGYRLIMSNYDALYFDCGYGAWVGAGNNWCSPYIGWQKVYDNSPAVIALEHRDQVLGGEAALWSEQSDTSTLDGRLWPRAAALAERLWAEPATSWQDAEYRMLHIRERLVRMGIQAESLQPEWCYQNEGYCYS", "assay": "fluorescence assay of released 4-methylumbelliferone", "conditions": "read-out: % inhibition at 1 mM"}, "[3]": {"target": "T2, OfHex1", "assay": "fluorescence of released 4-methylumbelliferone", "conditions": "10 μM substrate, 20 mM sodium phosphate pH 6.0, 30 °C, 30 min"}, "[4]": {"target": "T3, OfChi-h (Ostrinia furnacalis, UniProt Q4AE59)", "T3 construct": "PDB id is that of the docking structure", "T3 sequence (Q4AE59 18-553)": "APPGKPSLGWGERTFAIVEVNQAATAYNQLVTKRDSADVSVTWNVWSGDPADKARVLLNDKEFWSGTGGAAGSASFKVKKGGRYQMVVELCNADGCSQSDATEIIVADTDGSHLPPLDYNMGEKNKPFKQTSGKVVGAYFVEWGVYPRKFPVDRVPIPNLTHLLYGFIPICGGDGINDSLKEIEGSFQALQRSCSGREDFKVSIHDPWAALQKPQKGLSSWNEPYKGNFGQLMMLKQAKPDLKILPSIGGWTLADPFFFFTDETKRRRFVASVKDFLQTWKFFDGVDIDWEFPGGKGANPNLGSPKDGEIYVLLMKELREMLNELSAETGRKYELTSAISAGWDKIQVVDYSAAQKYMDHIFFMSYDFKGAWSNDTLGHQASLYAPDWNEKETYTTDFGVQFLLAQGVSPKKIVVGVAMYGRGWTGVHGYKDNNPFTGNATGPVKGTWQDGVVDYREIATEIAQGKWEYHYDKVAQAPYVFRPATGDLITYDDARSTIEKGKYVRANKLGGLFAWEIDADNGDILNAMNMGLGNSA", "assay": "fluorescence assay of released 4-methylumbelliferone", "conditions": "read-out: % inhibition at 1 mM"}}, "note": "Residues, ends and D or L forms follow the SMILES beside them."}
{"compound": "N[C@@H](Cc1ccccc1)C(=O)N1CCC[C@H]1C(=O)N[C@@H](Cc1ccc(O)cc1)C(=O)O", "note": "[FPY] (H-Phe-Pro-Tyr-OH)", "values": [{"measurement": "inhibition at 1000 µM", "setting": "[1]", "value": "< 50", "unit": "%"}, {"measurement": "inhibition at 1000 µM", "setting": "[2]", "value": "< 50", "unit": "%"}]}
{"compound": "CC(=O)N[C@H]1[C@H](Oc2ccc3c(C)cc(=O)oc3c2)O[C@H](CO)[C@@H](O)[C@@H]1O", "note": "[MU-GlcNAc]", "values": [{"measurement": "fluorescence of released 4-methylumbelliferone", "setting": "[3]", "value": "the substrate for OfHex1 was MU-GlcNAc"}]}
{"compound": "NC(=O)CC[C@H](N)C(=O)N[C@@H](Cc1c[nH]c2ccccc12)C(=O)N[C@@H](Cc1c[nH]c2ccccc12)C(=O)O", "note": "[QWW] (H-Gln-Trp-Trp-OH)", "values": [{"measurement": "inhibition at 1000 µM", "setting": "[1]", "value": 55.3, "unit": "%"}]}
{"compound": "N[C@@H](Cc1ccc(O)cc1)C(=O)N[C@@H](Cc1ccccc1)C(=O)N1CCC[C@H]1C(=O)O", "note": "[YFP] (H-Tyr-Phe-Pro-OH)", "values": [{"measurement": "inhibition at 1000 µM", "setting": "[1]", "value": "< 50", "unit": "%"}, {"measurement": "inhibition at 1000 µM", "setting": "[2]", "value": "< 50", "unit": "%"}, {"measurement": "inhibition at 1000 µM", "setting": "[4]", "value": 14.8, "unit": "%"}]}
